Experimental data taken from patent publication US20170312274A1, “METHOD FOR TREATING A BRAIN TUMOUR” (The Hospital for Sick Children, priority 2014, published 2017).

Assays:
[1] = test system: GNS cells (GBM-derived neural stem cells); experiment: Secondary screen / dose response curve, Alamar Blue cell viability, five days; assay type: cell-based, human; settings: for IC50: six GNS and four NS lines, IC50 based on approximate observed value, read-out: potency (IC50), growth inhibition of GNS cells
Experimental: (§1) GNS and NS lines were grown as an adherent monolayer culture in serum free medium as described previously (Pollard et al. 2009. Cell stem cell 4, 568-580). Primary tumour cells were freshly dissociated from the patient sample in artificial cerebrospinal fluid followed by treatment with an enzyme cocktail at 37° C. (Singh et al. 2003. Cancer research 63, 5821-5828). BJ fibroblast, Daoy and C8-D1A and U-2 0S (ATCC) were maintained in DMEM with 10% FBS.
(§2) Cells were seeded in laminin-coated 384 well plates at a density of 2000 cells per well. Compounds were added at a concentration of approximately 5 μM and incubated with cells for five days at 37° C. Cell viability was assessed by measuring Alamar Blue incorporation according to the manufacturer's protocol (Invitrogen). Percent growth inhibition was calculated relative to the control DMSO wells.
(§3) The potency and selectivity of hits from the primary screen was tested in 8-point two-fold dilution series ranging from 50 μM-0.39 μM concentrations with more lines of GNS, NS and fibroblast. Experimental conditions were the same as in primary screen. IC50 was calculated based on an approximate observed value. Fold selectivity was calculated as IC50 of BJ/IC50 of any GNS cells with lowest IC50.

[2] = target: T1, DRD4 receptor (Homo sapiens, UniProt P21917); experiment: cAMP assay (ELISA-based) in GNS (G362) cells; assay type: cell-based; settings: pretreatment 30 μM for 15 minutes, then forskolin 30 μM
T1 construct: endogenous in cells; host or cells: GNS line G362 (patient-derived glioblastoma neural stem cells)
T1 sequence (P21917 1-419): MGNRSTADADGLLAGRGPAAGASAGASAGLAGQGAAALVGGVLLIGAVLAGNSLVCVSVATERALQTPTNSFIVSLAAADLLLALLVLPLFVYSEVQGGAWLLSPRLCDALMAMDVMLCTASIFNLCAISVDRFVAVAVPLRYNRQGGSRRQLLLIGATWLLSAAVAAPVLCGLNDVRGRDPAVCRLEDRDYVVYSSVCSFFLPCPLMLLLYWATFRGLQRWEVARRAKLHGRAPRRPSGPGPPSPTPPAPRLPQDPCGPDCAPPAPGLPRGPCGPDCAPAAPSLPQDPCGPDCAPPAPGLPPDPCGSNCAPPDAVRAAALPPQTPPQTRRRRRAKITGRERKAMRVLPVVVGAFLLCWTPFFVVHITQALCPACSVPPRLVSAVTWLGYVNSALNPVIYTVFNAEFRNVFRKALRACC
Experimental: cAMP levels were measured with an ELISA-based cAMP assay kit purchased from Cell Signaling (#4439). GNS (G362) cells were seeded overnight in a 96 well plate and treated with forskolin (30 μM) for 15 minutes, or pretreated with DRD4 agonist A412997 (30 μM) for 15 minutes followed by forskolin treatment. Cells were lysed and processed as per manufacturer's protocol.

[3] = test system: freshly isolated primary GBM patient tumour cells; experiment: Primary in vitro limiting dilution assay (LDA), neurosphere formation; assay type: cell-based, human; settings: L-741,742 10 μM, PNU 96415E 25 μM, 14 days, n=3 patient tumours
Experimental: Limiting dilution assay was performed as described previously (Tropepe et al., 1999. Developmental Biology 208, 166-188). Primary tumours were dissociated into single cell suspension and seeded into a 96-well plate with 10 point-2 fold serial dilution starting from 2000 cells to 4 cells/well, 6 wells for each dilution per plate. Each well was scored for neurosphere formation after 14 days of incubation. Percent of wells not containing spheres for each cell density was calculated and plotted against the cells per well, regression lines were plotted and x-intercept value at 0.37 was calculated at 95% confidence interval using Sigma Plot, which gives the number of cells required to form at least one neurosphere.

[4] = test system: GNS cells (G362) subcutaneous tumour; experiment: Patient derived subcutaneous xenograft (G362); assay type: in vivo, mouse; settings: 20 mg/kg i.p., five days on and two days off, vs vehicle
Experimental: (§4) All mouse procedures were approved by the Hospital for Sick Children's Animal Care Committee. To validate the in vivo effect of L-741,742 and PNU 96415E, 2×10^5 GNS cells in 200 μl of PBS and matrigel (1:1) were injected subcutaneously into flanks of non-obese diabetic/severe combined immunodeficient (NOD/SCID) female mice. 8 mice (2 tumours per mouse except for one mouse in control group that has one tumour) were maintained for each group; control (15 tumours), L-741,742 (16 tumours) and PNU 96415E (16 tumours). L-741,742 and PNU 96415E were dissolved in 40% 2 hydroxy β-cyclodextrin (Sigma). Mice were treated three days after tumour implantation. Both L-741,742 and PNU 96415E were injected (20 mg/kg) i.p for 5 days on two days off until the end point. Control group was injected with 40% 2 hydroxy β-cyclodextrin. Tumour growth was monitored with microcalipers until tumour volume reached 17 mm in any one tumour from any group and all mice were sacrificed at the same end point. Dissected tumour volume was measured and mass was determined by weighing.

[5] = test system: colony forming cells of in vivo treated tumours; experiment: In vitro LDA of in vivo treated xenograft tumours; design: species or system mouse; settings: tumours treated in vivo 20 mg/kg i.p.; vehicle treated tumours 1 in every 11 cells
Experimental: as §4, with “Both L-741,742 and PNU 96415E were injected (20 mg/kg) i.p for 5 days on two days off until the end point. Control group was injected with 40% 2 hydroxy β-cyclodextrin.” left out
Limiting dilution assay was performed as described previously (Tropepe et al., 1999. Developmental Biology 208, 166-188). […] Each well was scored for neurosphere formation after 14 days of incubation. Percent of wells not containing spheres for each cell density was calculated and plotted against the cells per well, regression lines were plotted and x-intercept value at 0.37 was calculated at 95% confidence interval using Sigma Plot, which gives the number of cells required to form at least one neurosphere.

[6] = test system: GNS cells (G411 and G362); experiment: Autophagy markers (LC3B, p62) by western blot and immunofluorescence; assay type: cell-based, human; settings: for levels of LC3B-II: L-741,742 10 μM, PNU 96415E 25 μM, G411 and G362; for LC3-II levels in the presence of chloroquine compared to control: chloroquine 30 μM, 48 h, G411; for autophagy substrate p62: treated GNS cells (G411)
Experimental: Western blots were performed using the following antibodies; anti-DRD4 antibody at 1:750 (Millipore# MABN125), anti-activated MAPK at 1:2500 (Promega#V803A), anti-ERK1/2 at 1:2000 (Promega#V114A), anti-βactin at 1:10,000 (Sigma), anti-LC3B at 1:1000 (Cell Signaling #3868), anti-p62 at 1:1000 (BD Bioscience), anti-LAMP1 at 1:2000 (Developmental Studies Hybridoma Bank), anti-mono and polyubiquitinylated protein conjugates (FK2) at 1:1000 (Enzo Life Sciences).

[7] = test system: G411 and G362 cells; experiment: Cell cycle analysis by flow cytometry of DNA content; assay type: cell-based, human; settings: L-741,742 10 μM, PNU 96415E 25 μM, time dependent
[8] = test system: GNS cells; experiment: Caspase 3/7 activity and cleaved PARP in treated GNS cells; assay type: cell-based, human
[9] = test system: ERK1/2 phosphorylation in GNS (G362) cells; experiment: Phospho-kinase antibody array; assay type: cell-based, human; settings: L-741,742 10 μM, PNU 25 μM, 24 h
Experimental: A human phospho-kinase antibody array was purchased from R&D systems (Cat# ARY003). This array contains capture antibodies for 43 kinases in duplicate on nitrocellulose membrane. GNS (G362) and NS (hf5205) lines were treated with L-741,742 (10 μM) and PNU 96415E (25 μM) along with a DMSO control for 24 h, and cells were then processed according to the manufacturer's protocol. Signal intensity was quantified using ImageJ.

[10] = test system: G362 cells; experiment: Combination/synergy screen with temozolomide, alamar blue; assay type: cell-based, human; settings: five days, COMPUSYN, CI <1 indicates synergism
Experimental: (§5) 2000 GNS cells (G362 and G481) were seeded in a 96 well plate and treated with a combination of 6-point 2-fold dose series of either L-741,742 (6.25 μM-0.39 μM) or PNU 96415E (25 μM-1.56 μM) with 10-point 2-fold dose series of temozolomide (100 μM-0.39 μM) in 60 point combination doses. The cells were incubated with a combination of the two drugs for five days and then checked for cell viability using the alamar blue assay. Combination index (CI) plot and CI value was calculated for 5 point dose series in each combination using the programme COMPUSYN. Data points taken for COMPUSYN analysis are temozolomide (100, 50, 25, 12.5 and 6.25 μM) in combination with either L-741,742 (6.25, 3.12, 1.56, 0.78 and 0.39 μM) or PNU 96415E (25, 12.5, 6.25, 3.12 and 1.56 μM).

[11] = test system: G481 cells; experiment: as above; assay type: cell-based, human; settings: five days, COMPUSYN, CI <1 indicates synergism
Experimental: as §5

[12] = test system: non-NS control cells (BJ fibroblast, Daoy, U-2 0S, C8-D1A); experiment: Dose response cell viability in non-NS control cell lines; assay type: cell-based; settings: highest concentration tested 50 μM
Experimental: as §1, §2, §3

[13] = dose response series 0.39-50 μM

Br.Br.CN(CCc1ccc(Cl)c(Cl)c1)[C@@H]1CCCC[C@@H]1N1CCCC1 (racemic) [cis-(±)-N-Methyl-N-[2-(3,4-dichlorophenyl)ethyl]-2-(1-pyrrolidinyl)cyclohexamine 2HBr]
Fold selectivity towards GNS and NS cells compared to fibroblasts (IC50 of BJ/IC50 of any of the NS or GNS lines that showed the lowest IC50) ([1]; dose response series 0.39-50 μM, five days): 8 fold

Cc1cccc(NC(=O)CN2CCC(c3ccccn3)CC2)c1 [A412997]
block of forskolin-induced cAMP response [2]: 38%

Cc1c(C2CCN(CCc3ccccc3)CC2)noc1-c1ccc(Cl)cc1 [L-741,742]
selectivity against GNS cells compared to NS cells [1, 13]: 8 fold
IC50 [1]: 1.5 to 6.2 µM
reduction in frequency of colony forming cells in comparison to the control [3]: 40-83 fold
average tumour weight at the end point reduced by [4]: 40.9%
colony forming cell frequency, 1 in every x cells [5]: 76 cells
levels of LC3B-II [6]: increase
LC3-II levels in the presence of chloroquine compared to control [6]: did not increase
autophagy substrate p62 [6]: accumulated
effect on the cell cycle [7]: G0/G1 arrest
caspase 3/7 activity or cleaved PARP [8]: no increase
reduction of ERK1/2 phosphorylation compared to the untreated control [9]: 40%
lowest combination index (CI) value in combination with TMZ [10]: 0.29
lowest combination index (CI) value in combination with TMZ [11]: 0.28

Clc1ccc(N2CCN(Cc3c[nH]c4ncccc34)CC2)cc1 [L-745,870]
IC50 [1]: 3.1 to 6.2 µM

Cl.Cl.Fc1ccc(N2CCN(CCC3OCCc4ccccc43)CC2)cc1 (centres unmarked) [PNU 96415E]
selectivity against GNS cells compared to NS cells [1, 13]: 8 fold
IC50 [1]: 6.25 µM
sensitivity of non-NS control cells [12]: not sensitive even at the highest concentration tested
reduction in frequency of colony forming cells in comparison to the control [3]: 19-29 fold
average tumour weight at the end point reduced by [4]: 44.3%
colony forming cell frequency, 1 in every x cells [5]: 43 cells
levels of LC3B-II [6]: increase
LC3-II levels in the presence of chloroquine compared to control [6]: did not increase
autophagy substrate p62 [6]: accumulated
effect on the cell cycle [7]: G0/G1 arrest
caspase 3/7 activity or cleaved PARP [8]: no increase
reduction of ERK1/2 phosphorylation compared to the untreated control [9]: 40%
lowest combination index (CI) value in combination with TMZ [10]: 0.56
lowest combination index (CI) value in combination with TMZ [11]: 0.32

Ifenprodil tartrate
selectivity against GNS cells compared to NS cells [1, 13]: 8 fold

PD168568
IC50 [1]: 25 to 50 µM
